According to patent US12011506B2, “Combination and uses and treatments thereof” (priority 2017, dated 2024):
Read-outs that look alike come from different tables or passages of the source.

Key:
[1] = Drug interaction trials: effect of rilpivirine on pharmacokinetics of coadministered drugs; settings: No Effect = 1.00; for AUC(0-last) of coadministered drug, geometric mean ratio with/without EDURANT: footnote c
[2] = Drug interaction trials: effect of coadministered drugs on pharmacokinetics of dolutegravir; type: in vivo, human
From the text: (§1) These recommendations are based on either drug interaction trials of individual components or predicted interactions due to the expected magnitude of interaction and potential for serious adverse events or loss of efficacy.

[3] = Established and other potentially significant drug interactions with JULUCA (effect on concentration); type: in vivo, human; settings: based on drug interaction trials or predicted interactions; for Effect on Concentration of Rilpivirine / Effect on Concentration of Dolutegravir: concomitant drug with JULUCA
From the text: as §1

[4] = human, in vivo
[5] = coadministered drug 2 h after dolutegravir 50 mg single dose
[6] = simultaneous administration (fasted), dolutegravir 50 mg single dose
[7] = simultaneous administration (fed), dolutegravir 50 mg single dose

CC(C)c1c(C(=O)Nc2ccccc2O)c(-c2ccccc2)c(-c2ccc(F)cc2)n1CCC(O)CC(O)CC(=O)O (centres unmarked) [2-hydroxy-atorvastatin]
AUC of coadministered drug, geometric mean ratio with/without EDURANT [1]: 1.39
Cmax of coadministered drug, geometric mean ratio with/without EDURANT [1]: 1.58
Cmin of coadministered drug, geometric mean ratio with/without EDURANT [1]: 1.32

CC(C)c1c(C(=O)Nc2ccc(O)cc2)c(-c2ccccc2)c(-c2ccc(F)cc2)n1CC[C@@H](O)C[C@@H](O)CC(=O)O [4-hydroxy-atorvastatin]
AUC of coadministered drug, geometric mean ratio with/without EDURANT [1]: 1.23
Cmax of coadministered drug, geometric mean ratio with/without EDURANT [1]: 1.28

CO[C@H]1/C=C/O[C@@]2(C)Oc3c(C)c(O)c4c(O)c(c(/C=N/N5CCN(C)CC5)c(O)c4c3C2=O)NC(=O)/C(C)=C\C=C\[C@H](C)[C@H](O)[C@@H](C)[C@@H](O)[C@@H](C)[C@H](O)[C@@H]1C [25-desacetylrifampin]
AUC of coadministered drug, geometric mean ratio with/without EDURANT [1]: 0.91
Cmax of coadministered drug, geometric mean ratio with/without EDURANT [1]: 1.00

O=C([O-])[O-].[Ca+2] [Calcium carbonate]
Dolutegravir AUC, geometric mean ratio with/without coadministered drug [2, 5]: 0.94
Dolutegravir Cmax, geometric mean ratio with/without coadministered drug [2, 5]: 1.00
Dolutegravir Cτ or C24, geometric mean ratio with/without coadministered drug [2, 5]: 0.90
Dolutegravir AUC, geometric mean ratio with/without coadministered drug [2, 6]: 0.61
Dolutegravir Cmax, geometric mean ratio with/without coadministered drug [2, 6]: 0.63
Dolutegravir Cτ or C24, geometric mean ratio with/without coadministered drug [2, 6]: 0.61
Dolutegravir AUC, geometric mean ratio with/without coadministered drug [2, 7]: 1.09
Dolutegravir Cmax, geometric mean ratio with/without coadministered drug [2, 7]: 1.07
Dolutegravir Cτ or C24, geometric mean ratio with/without coadministered drug [2, 7]: 1.08

NC(=O)N1c2ccccc2C=Cc2ccccc21 [Carbamazepine]
Effect on Concentration of Rilpivirine [3]: ↓Rilpivirine

CN/C(=N/CCSCc1nc[nH]c1C)NC#N [Cimetidine]
Effect on Concentration of Dolutegravir [3]: ↔Dolutegravir
Effect on Concentration of Rilpivirine [3]: ↓Rilpivirine

CC[C@H]1OC(=O)[C@H](C)[C@@H](O[C@H]2C[C@@](C)(OC)[C@@H](O)[C@H](C)O2)[C@H](C)[C@@H](O[C@@H]2O[C@H](C)C[C@H](N(C)C)[C@H]2O)[C@](C)(OC)C[C@@H](C)C(=O)[C@H](C)[C@@H](O)[C@]1(C)O [Clarithromycin]
Effect on Concentration of Dolutegravir [3]: ↔Dolutegravir
Effect on Concentration of Rilpivirine [3]: ↑Rilpivirine

C[C@@H]1C[C@H]2[C@@H]3CCC4=CC(=O)C=C[C@]4(C)[C@@]3(F)[C@@H](O)C[C@]2(C)[C@@]1(O)C(=O)CO [Dexamethasone]
Effect on Concentration of Rilpivirine [3]: ↓Rilpivirine

C[C@H]1O[C@@H](O[C@H]2[C@@H](O)C[C@H](O[C@H]3[C@@H](O)C[C@H](O[C@H]4CC[C@@]5(C)[C@H](CC[C@@H]6[C@@H]5C[C@@H](O)[C@]5(C)[C@@H](C7=CC(=O)OC7)CC[C@]65O)C4)O[C@@H]3C)O[C@@H]2C)C[C@H](O)[C@@H]1O [Digoxin]
Cmax of coadministered drug, geometric mean ratio with/without EDURANT [1]: 1.06
AUC(0-last) of coadministered drug, geometric mean ratio with/without EDURANT [1]: 0.98

CN(CCOc1ccc(NS(C)(=O)=O)cc1)CCc1ccc(NS(C)(=O)=O)cc1 [Dofetilide]
Effect on Concentration of the concomitant drug [3]: ↑Dofetilide

CC[C@H]1OC(=O)[C@H](C)[C@@H](O[C@H]2C[C@@](C)(OC)[C@@H](O)[C@H](C)O2)[C@H](C)[C@@H](O[C@@H]2O[C@H](C)C[C@H](N(C)C)[C@H]2O)[C@](C)(O)C[C@@H](C)C(=O)[C@H](C)[C@@H](O)[C@]1(C)O [Erythromycin]
Effect on Concentration of Dolutegravir [3]: ↔Dolutegravir
Effect on Concentration of Rilpivirine [3]: ↑Rilpivirine

COc1ccc2nc([S@@+]([O-])Cc3ncc(C)c(OC)c3C)[nH]c2c1 [Esomeprazole]
Effect on Concentration of Rilpivirine [3]: ↓Rilpivirine

NC(N)=Nc1nc(CSCCC(N)=NS(N)(=O)=O)cs1 [Famotidine]
Effect on Concentration of Dolutegravir [3]: ↔Dolutegravir
Effect on Concentration of Rilpivirine [3]: ↓Rilpivirine

O=C([O-])/C=C/C(=O)[O-].[Fe+2] [Ferrous fumarate]
Dolutegravir AUC, geometric mean ratio with/without coadministered drug [2, 5]: 0.95
Dolutegravir Cmax, geometric mean ratio with/without coadministered drug [2, 5]: 0.99
Dolutegravir Cτ or C24, geometric mean ratio with/without coadministered drug [2, 5]: 0.92
Dolutegravir AUC, geometric mean ratio with/without coadministered drug [2, 6]: 0.46
Dolutegravir Cmax, geometric mean ratio with/without coadministered drug [2, 6]: 0.43
Dolutegravir Cτ or C24, geometric mean ratio with/without coadministered drug [2, 6]: 0.44
Dolutegravir AUC, geometric mean ratio with/without coadministered drug [2, 7]: 0.98
Dolutegravir Cmax, geometric mean ratio with/without coadministered drug [2, 7]: 1.03
Dolutegravir Cτ or C24, geometric mean ratio with/without coadministered drug [2, 7]: 1.00

CC(=O)N1CCN(c2ccc(OCC3COC(Cn4ccnc4)(c4ccc(Cl)cc4Cl)O3)cc2)CC1 (centres unmarked) [Ketoconazole]
AUC of coadministered drug, geometric mean ratio with/without EDURANT [1]: 0.76
Cmax of coadministered drug, geometric mean ratio with/without EDURANT [1]: 0.85
Cmin of coadministered drug, geometric mean ratio with/without EDURANT [1]: 0.34

Cc1c(OCC(F)(F)F)ccnc1C[S+]([O-])c1nc2ccccc2[nH]1 (centres unmarked) [Lansoprazole]
Effect on Concentration of Rilpivirine [3]: ↓Rilpivirine

CCC(=O)C(CC(C)N(C)C)(c1ccccc1)c1ccccc1 (centres unmarked) [Methadone]
Effect on Concentration of the concomitant drug [3]: ↓Methadone
Effect on Concentration of Dolutegravir [3]: ↔Dolutegravir
Effect on Concentration of Rilpivirine [3]: ↔Rilpivirine

CCCc1nn(C)c2c(=O)[nH]c(-c3cc(S(=O)(=O)N4CCNCC4)ccc3OCC)nc12 [N-desmethyl-sildenafil]
Cmax of coadministered drug, geometric mean ratio with/without EDURANT [1]: 0.90
AUC(0-last) of coadministered drug, geometric mean ratio with/without EDURANT [1]: 0.92

CNC(=C[N+](=O)[O-])NCCSCc1csc(CN(C)C)n1 [Nizatidine]
Effect on Concentration of Dolutegravir [3]: ↔Dolutegravir
Effect on Concentration of Rilpivirine [3]: ↓Rilpivirine

C#C[C@]1(O)CC[C@H]2[C@@H]3CCC4=CC(=O)CC[C@@H]4[C@H]3CC[C@@]21C [Norethindrone]
Cmin of coadministered drug, geometric mean ratio with/without EDURANT [1]: 0.99
AUC of coadministered drug, geometric mean ratio with/without EDURANT [4]: 0.89
Cmax of coadministered drug, geometric mean ratio with/without EDURANT [4]: 0.94

NC(=O)N1c2ccccc2CC(=O)c2ccccc21 [Oxcarbazepine]
Effect on Concentration of Rilpivirine [3]: ↓Rilpivirine

COc1ccnc(C[S+]([O-])c2nc3ccc(OC(F)F)cc3[nH]2)c1OC (centres unmarked) [Pantoprazole]
Effect on Concentration of Rilpivirine [3]: ↓Rilpivirine

CCC1(c2ccccc2)C(=O)NC(=O)NC1=O [Phenobarbital]
Effect on Concentration of Rilpivirine [3]: ↓Rilpivirine

O=C1NC(=O)C(c2ccccc2)(c2ccccc2)N1 [Phenytoin]
Effect on Concentration of Rilpivirine [3]: ↓Rilpivirine

COCCCOc1ccnc(C[S+]([O-])c2nc3ccccc3[nH]2)c1C (centres unmarked) [Rabeprazole]
Effect on Concentration of Rilpivirine [3]: ↓Rilpivirine

CNC(=C[N+](=O)[O-])NCCSCc1ccc(CN(C)C)o1 [Ranitidine]
Effect on Concentration of Dolutegravir [3]: ↔Dolutegravir
Effect on Concentration of Rilpivirine [3]: ↓Rilpivirine

CO[C@H]1/C=C/O[C@@]2(C)Oc3c(C)c(O)c4c(c3C2=O)C2=NC3(CCN(CC(C)C)CC3)NC2=C(NC(=O)/C(C)=C\C=C\[C@H](C)[C@H](O)[C@@H](C)[C@@H](O)[C@@H](C)[C@H](OC(C)=O)[C@@H]1C)C4=O [Rifabutin]
Effect on Concentration of the concomitant drug [3]: ↔Rifabutin
Effect on Concentration of Dolutegravir [3]: ↔Dolutegravir
Effect on Concentration of Rilpivirine [3]: ↓Rilpivirine

CO[C@H]1/C=C/O[C@@]2(C)Oc3c(C)c(O)c4c(O)c(c(/C=N/N5CCN(C)CC5)c(O)c4c3C2=O)NC(=O)/C(C)=C\C=C\[C@H](C)[C@H](O)[C@@H](C)[C@@H](O)[C@@H](C)[C@H](OC(C)=O)[C@@H]1C [Rifampin]
Effect on Concentration of Rilpivirine [3]: ↓Rilpivirine

CO[C@H]1/C=C/O[C@@]2(C)Oc3c(C)c(O)c4c(O)c(c(/C=N/N5CCN(C6CCCC6)CC5)c(O)c4c3C2=O)NC(=O)/C(C)=C\C=C\[C@H](C)[C@H](O)[C@@H](C)[C@@H](O)[C@@H](C)[C@H](OC(C)=O)[C@@H]1C [Rifapentine]
Effect on Concentration of Rilpivirine [3]: ↓Rilpivirine

COc1ccc2c(O[C@@H]3C[C@H]4C(=O)N[C@]5(C(=O)NS(=O)(=O)C6CC6)C[C@H]5/C=C\CCCCN(C)C(=O)[C@@H]4C3)cc(-c3nc(C(C)C)cs3)nc2c1C [Simeprevir]
AUC of coadministered drug, geometric mean ratio with/without EDURANT [1]: 1.06
Cmax of coadministered drug, geometric mean ratio with/without EDURANT [1]: 1.10
Cmin of coadministered drug, geometric mean ratio with/without EDURANT [1]: 0.96

CC[C@H]1OC(=O)[C@H](C)C(=O)[C@H](C)[C@@H](O[C@@H]2O[C@H](C)C[C@H](N(C)C)[C@H]2O)[C@](C)(OC)C[C@@H](C)C(=O)[C@H](C)[C@H]2N(CCCCn3cnc(-c4cccnc4)c3)C(=O)O[C@]12C [Telithromycin]
Effect on Concentration of Dolutegravir [3]: ↔Dolutegravir
Effect on Concentration of Rilpivirine [3]: ↑Rilpivirine

Sucralfate
Effect on Concentration of Dolutegravir [3]: ↓Dolutegravir
